What was measured:
[1] = tested on: myelin oligodendrocyte glycoprotein (MOG) induced experimental autoimmune encephalomyelitis (EAE); test: MOG-induced experimental autoimmune encephalomyelitis (EAE) in DA rats, clinical course; format: in vivo
Protocol: Using the example of experimental autoimmune encephalomyelitis (EAE) which is recognized as animal model of human MS, the effectiveness of treosulfan was first of all examined. […] In the first trials, treosulfan was applied on the day of immunisation, in another on day 14 following immunisation.
Firstly, several trials for the determination of the dosage of treosulfan were carried out in DA rats, a strain of rat particularly suitable for these trials (Dark Agouti strain) with myelin oligodendrocyte glycoprotein (MOG) induced experimental autoimmune encephalomyelitis (EAE). These rats represent an excellent model of multiple sclerosis (MS) since the clinical development and the lesion morphology (inflammation, demyelination, loss of axons and nerve cells) of MS can be reproduced.
DA rats (10 animals per group) were treated either with a single dose of treosulfan (0.5 g/kg bodyweight) on the day of immunisation (p.i.) or with a three times repeated treosulfan application (0.5 g/kg bodyweight per application) at intervals of 1 day. PBS (phosphate buffered salt solution) was administered as control. In a further experiment, treosulfan (single dose: 0.5 g/kg bodyweight) was administered 2 weeks after immunisation. The total number of rats was 30 animals. The animals were observed clinically for the period of 40 days after initiation of the experiment and regularly examined neurologically.
FIGS. 3 and/or 3a are different representations of the experiment in which treosulfan was administered on day 14 following immunisation.

[2] = tested on: interferon-β (IFN-β); test: Quantitative PCR for IFN in MOG-EAE rats; format: in vivo, DA rats; details: treatment on day 0
From the text: (§1) In a second experiment, five rats each were characterised immunologically on day 12 and day 40 (total number of animals: n=30) following the immunisation with respect to T and B cell response (EliSpot (Autoimmun Diagnostika GmbH, D-72479 Strassberg) for IFN-secreting cells, proliferations, auto-antibody analysis). (R. Weissert et al., J. Immunol. 160 […], 681–690).
(§2) It was, moreover, observed that the interleukin 12 (IL-12) and/or interferon-β (IFN-β) values were reduced in the treosulfan group (FIG. 16, 17). (R. Weissert et al., J. Immunol. 166 (2001), 7588–7599).
FIG. 16: Quantitative PCR for IFN-treatment with treosulfan on day 0.

[3] = Tolerance and haematological characterisation in MOG-EAE rats; format: in vivo, DA rats
From the text: To analyse the haematological status, blood was taken from the rats on day 0, day 5, day 14, and day 53 following immunisation and a determination of haemoglobin (Hb), reticulocytes, leukocytes, thrombocytes and crythrocytes carried out.
The tolerance of treosulfan is illustration in FIGS. 5–15.

[4] = tested on: secondary progressive MS; test: Healing trial on patients with secondary progressive MS; format: in vivo
Protocol: In the course of a first healing trial, 5 patients suffering from secondary progressive MS (SPMS patients) were treated. They consisted of 3 men […]/62 and two women […].
As part of the therapy, treosulfan was administered in the form of a solution suitable for intravenous application (infusion). The patients were treated with a dosage of 5 g/m^2 body surface in each case at intervals of 4 weeks in the first quarter. Subsequently, a single treosulfan application (5 g/m^2 of treosulfan) took place per quarter.
In the case of two patients, an improvement of the ambulation index (S. L. Hauser et al. N. Engl. J. Med. 308 (1983) 173–178) was observed.

[5] = tested on: interleukin 12 (IL-12); test: Quantitative PCR for IL-12 in MOG-EAE rats; format: in vivo, DA rats; details: treatment on day 0
From the text: as §1, §2
FIG. 17: Quantitative PCR for IL-12 treatment with treosulfan on day 0.

## O=C1c2c(O)ccc(O)c2C(=O)c2c(NCCNCCO)ccc(NCCNCCO)c21 [mitoxantrone]
[1]; same trial conditions, single i.p. treatment on the day of immunisation
  effectiveness compared with the treosulfan group: no greater effectiveness

## CS(=O)(=O)OC[C@H](O)[C@@H](O)COS(C)(=O)=O [treosulfan, (2S,3S)-threitol-1,4-bismethane sulphonate]
[2]
  interferon-β (IFN-β) values: reduced
[3]; blood taken day 0, 5, 14 and 53 following immunisation
  changes to the blood picture (Hb, reticulocytes, leukocytes, thrombocytes, erythrocytes): not documented
[3]; single dose of 1 g/kg i.p., at the beginning of the treatment
  weight: substantial decrease in weight
[1]; FIGS. 1-3a
  effectiveness in comparison with the untreated control group: confirm first of all the effectiveness
[1]; day 53, untreated control group 2 out of 8
  animals still alive: 7 out of 8
[1]; single dose of 1 g/kg bodyweight, intraperitoneal
  suppression of the disease: capable of suppressing the disease
[1]; treosulfan applied on day 14 following immunisation
  disease course in contrast to untreated control group: stabilisation
[4]; 5 SPMS patients, 5 g/m^2 body surface i.v. infusion every 4 weeks in the first quarter, then once per quarter
  patients with improvement of the ambulation index: two
[4]; 5 SPMS patients, 5 g/m^2 i.v. infusion
  substance-related secondary effects: No substance-related secondary effects were observed
[4]; summary statement
  disease development in MS patients: clear improvement
  tolerance: extremely well tolerated
[5]
  interleukin 12 (IL-12) values: reduced

Reference: US7235590B2, “Use of treosulfan and derivatives thereof for treating multiple sclerosis” (Medac Gesellschaft fur Klinische Spezialpraparate mbH, priority 2002, dated 2007)
